{"source": "paper PMC12406664", "about": "“New derivatives of 6-nitrocoumarin-3-thiosemicarbazone exhibit improved antiparasitic activity in the placenta against Trypanosoma cruzi and Toxoplasma gondii” (Antimicrobial Agents and Chemotherapy, 2025)", "key": {"[1]": {"tested_on": "human placental explants (HPE)", "assay": "Histopathology of uninfected HPE exposed to the compounds alone", "conditions": "explants incubated only with the compound, 24 h, IC50 concentration", "description": "The HPE was fixed in 10% formaldehyde in 0.1 M phosphate buffer (pH 7.3) for 24 h, dehydrated in alcohol, clarified in xylene, embedded in paraffin, and sectioned at 3 µm. Paraffin histological sections were stained with hematoxylin-eosin for routine histological analysis, Picro Sirius red, and trichromic Masson for collagen histochemistry. Sections for the histological analysis were observed under an optical microscope (Leica DM500) and images were captured with a Leica ICC50 W camera ([7], [91])."}, "[2]": {"tested_on": "T. gondii (RH strain) in HPE", "assay": "T. gondii DNA load in infected human placental explants (HPE) by real-time qPCR", "format": "cell-based, Toxoplasma gondii", "conditions": "24 hour post-infection treatment, IC50 concentration", "description": "The effect on HPE infection of compounds 1 and 7 by Toxoplasma gondii and Trypanosoma cruzi, respectively, was evaluated. To do this, the DNA of the T. gondii or T. cruzi parasite was quantified by infecting HPE for 24 hours under treatment conditions of co-incubation of compounds with the parasite at the same time of infection, and with a 24 hour post-infection treatment. The compound’s IC50 concentration value previously obtained under both conditions was used.\nTerm human placentas were obtained from uncomplicated pregnancies via scheduled cesarean sections. Each patient provided informed consent for the experimental use of the placenta, and the study was approved by the ethics committee of Hospital San José, Servicio Salud Metropolitano Norte (N° 013/2022). Exclusion criteria for placental use included significant fetal anomalies, placental tumors, intrauterine infection, positive serology for Chagas disease, obstetric pathology, and any other maternal disease. Donor patients tested negative for T. gondii IgG/IgM antibodies. Organs were collected in sterile, cold PBS and processed within 30 minutes after delivery. Maternal and fetal surfaces of each placenta were discarded, and the villous tissue from the central part of the placental cotyledons was isolated. […] All the experiments were performed in triplicate in at least three different placentas.\nCells or HPE were exposed to parasites. […]\nSubsequently, cells were exposed to parasites at a 1:1 ratio (cell: parasite) for 24 hours. […] The resulting DNA was quantified using a μDrop Plate DNA quantification system on the Varioskan Flash multimode reader (Thermo Scientific, USA). […]\nAmplification was carried out using the CFX96 Touch Deep Well Real-Time PCR Detection System (Biorad, California, USA) with the following cycling program: initial denaturation at 95°C for 3 min, followed by 40 cycles of denaturation at 95°C for 5 s, annealing at 60°C for 30 s, and a dissociation stage ranging from 60°C to 95°C. The relative quantification analysis of the results was expressed as RQ values using the comparative […] (∆∆Ct) ([80])."}, "[3]": {"tested_on": "T. gondii tachyzoites (strain RH)", "assay": "Intracellular ROS generation (DCF probe) in T. gondii", "format": "cell-based, Toxoplasma gondii", "conditions": "compound at IC50, menadione 20 µM, 40 minutes, vs untreated control", "description": "ROS detection was performed using the 2′,7′-dichlorodihydrofluorescein diacetate (DCFH2-DA) method ([45]). For the assay, Dm28c trypomastigotes and tachyzoites were seeded in 96-well plates at a density of 10⁶ parasites/mL. In contrast, BeWo cells were seeded at 5 × 10⁴ cells per well, using the previously described culture medium.\nAfter incubation with 20 µM DCFH2-DA for 15 minutes at 37°C, the parasites were centrifuged at 3,500 × g, washed twice with PBS (pH 7.4), and subsequently transferred to Nunc 96-well fluorescence plates. Meanwhile, after 24 hours of incubation at 37°C and 5% CO₂, the culture medium of BeWo cells was replaced, and 20 µM DCFH2-DA solution was added, followed by a 15 minute incubation at 37°C. The cells were then washed with PBS at pH 7.4. As a positive control, 20 µM menadione was used, while the negative control consisted of culture medium without compounds.\nOver time, the area under the fluorescence increase curve was determined using Origin 8 software (version 9.2), with normalization relative to the control. The results correspond to three independent experiments' mean ± standard deviation (SD)."}, "[4]": {"assay": "Cytotoxicity on cells (resazurin), BeWo", "format": "cell-based", "conditions": "human, BeWo trophoblast cells", "source_text": "(§1) Triton X-100 was used as a positive control, and untreated cells served as a negative control. In addition, the maximum concentration of DMSO was used as a control for the method. […] The obtained values were expressed as IC50([88])."}, "[5]": {"assay": "Cytotoxicity on cells (resazurin), EA.hy926", "format": "cell-based", "conditions": "human, EA.hy926 endothelial cells", "source_text": "as §1"}, "[6]": {"tested_on": "HPE exposed to T. gondii tachyzoites", "assay": "Histopathology of HPE infected with T. gondii", "format": "cell-based, human", "conditions": "IC50 concentration", "source_text": "Cells or HPE were exposed to parasites. […] The following treatment conditions were used in both infection models. […] Untreated cells or HPE served as a negative control, and the compounds’ activity was compared with the reference drugs (NFX and PMN)."}, "[7]": {"assay": "Cyclic voltammetry, reduction potentials in DMSO (HDME, vs. Ag/AgCl)", "conditions": "2.00 V/s", "procedure": "Electrochemical studies were carried out on a Metrohm Autolab instrument model PGSTAT204, using dimethyl sulfoxide (DMSO) as the solvent (1 mM solutions), tetrabutylammonium perchlorate (0.1 M TBAP) as the supporting electrolyte, a hanging drop mercury electrode (HDME) as the working electrode, Ag/AgCl (3M KCl) as the reference electrode and a graphite rod as the counter electrode. All measurements were performed after bubbling with nitrogen (N2) for 10 minutes."}, "[8]": {"tested_on": "T. gondii tachyzoites (strain RH)", "assay": "ESR spin trapping with DMPO in T. gondii", "format": "cell-based, Toxoplasma gondii", "conditions": "compound about 1 mM, menadione 20 µM", "description": "Each tested hybrid was dissolved in spectroscopy-grade DMSO at an approximate concentration of 1 mM and added to a mixture containing Trypanosoma cruzi (Dm28c strain) or Toxoplasma gondii at a density of 50 × 10⁶ trypomastigotes or tachyzoites per mL, along with DMPO at a final concentration of 250 mM. Menadione (20 µM) was used as a positive control.\nAll spectra were acquired on the same scale after 15 scans."}}, "note": "“Also recorded” adds a separate entry of the source."}
{"smiles": "C/C(=N\\NC(N)=S)c1c(O)c2cc([N+](=O)[O-])ccc2oc1=O", "note": "[Compound 1, (E)−2-(1-(4-hydroxy-6-nitro-2-oxo-2H-chromen-3-yl)ethylidene)hydrazine-1-carbothioamide]", "values": [{"measurement": "tissue damage caused by the compound itself in HPE", "setting": "[1]", "value": "neither compound induced tissue damage"}, {"measurement": "effect on parasite DNA load", "setting": "[2]", "value": "not statistically significant; also recorded: did not reduce the parasitic load"}, {"measurement": "ROS generation (DCF fluorescence)", "setting": "[3]", "value": "increase in ROS levels, albeit lower than the positive control"}, {"measurement": "CC50 at 24 h", "setting": "[4]", "value": "386.9 ± 1", "unit": "µM"}, {"measurement": "CC50 at 24 h", "setting": "[5]", "value": "> 400", "unit": "µM"}, {"measurement": "tissue damage in infected HPE (histopathology)", "setting": "[6]; co-incubation", "value": "prevented tissue damage induced by tachyzoites"}, {"measurement": "tissue damage in infected HPE (histopathology)", "setting": "[6]; post-infection treatment", "value": "did not reduce the parasitic load or mitigate tissue damage"}, {"measurement": "E(pIIa)", "setting": "[7]; anodic peak IIa", "value": "−0.98", "unit": "V"}, {"measurement": "E(pIcb)", "setting": "[7]; cathodic peak Icb, nitro reduction", "value": "~−0.99", "unit": "V"}, {"measurement": "radical species detected by ESR spin trapping (DMPO)", "setting": "[8]", "value": "formation of only two spin adducts"}]}
